The values that follow come from article PMC8076288, “Effect of respiratory inhibitors and quinone analogues on the aerobic electron transport system of Eikenella corrodens” (Scientific Reports, 2021).

Experiment [1] deals with T1, bc1 complex (complex III) (Eikenella corrodens, UniProt V7IIL5).
T1 construct: gene HMPREF1177_00380; native complex in isolated membrane particles, not purified; with Ubiquinol-cytochrome c reductase iron-sulfur subunit; Cytochrome c1
T1 sequence (V7IIL5 1-530): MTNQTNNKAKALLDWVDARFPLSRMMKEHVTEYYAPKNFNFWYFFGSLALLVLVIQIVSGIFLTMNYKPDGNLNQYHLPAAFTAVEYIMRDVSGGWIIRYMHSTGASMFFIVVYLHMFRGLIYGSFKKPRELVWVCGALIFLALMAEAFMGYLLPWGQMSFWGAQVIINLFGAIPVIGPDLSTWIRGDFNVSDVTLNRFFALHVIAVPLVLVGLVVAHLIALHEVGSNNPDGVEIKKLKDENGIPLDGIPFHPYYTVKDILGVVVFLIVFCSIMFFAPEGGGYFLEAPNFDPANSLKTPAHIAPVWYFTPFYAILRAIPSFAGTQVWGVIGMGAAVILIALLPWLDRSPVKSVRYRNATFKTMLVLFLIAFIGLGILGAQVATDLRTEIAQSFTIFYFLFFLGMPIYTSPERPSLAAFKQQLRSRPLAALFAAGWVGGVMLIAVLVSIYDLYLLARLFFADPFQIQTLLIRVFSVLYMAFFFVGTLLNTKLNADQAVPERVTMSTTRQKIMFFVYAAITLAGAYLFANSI
T1 sequence (V7IHH9 1-197 partner): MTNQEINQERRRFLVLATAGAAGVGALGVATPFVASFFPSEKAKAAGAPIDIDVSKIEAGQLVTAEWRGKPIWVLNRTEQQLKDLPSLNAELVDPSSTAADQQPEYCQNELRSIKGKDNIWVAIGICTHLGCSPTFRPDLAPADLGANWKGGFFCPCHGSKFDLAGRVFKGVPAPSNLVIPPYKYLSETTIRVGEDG
Kind of experiment: polarographic O2 uptake (Clark electrode), succinate oxidase of membranes. The experiment is classed as biochemical. The conditions noted are these: succinate as substrate, 34 °C; read-out is the whole succinate respiration.

Experiment [2] concerns the target T2, dissimilatory nitrate reductase, Nar (Eikenella corrodens, UniProt V7IBI8).
T2 construct: gene HMPREF1177_02096; with Respiratory nitrate reductase beta subunit; Respiratory nitrate reductase gamma subunit
Kind of experiment: oxidation of reduced methyl viologen at […] nm, membranes. The experiment is classed as biochemical. Particulars: 1 mM dithionite-reduced methyl viologen, 2 mM nitrate, pH 7.4, anaerobic.

T2 sequence (V7IA22 entry or part of it): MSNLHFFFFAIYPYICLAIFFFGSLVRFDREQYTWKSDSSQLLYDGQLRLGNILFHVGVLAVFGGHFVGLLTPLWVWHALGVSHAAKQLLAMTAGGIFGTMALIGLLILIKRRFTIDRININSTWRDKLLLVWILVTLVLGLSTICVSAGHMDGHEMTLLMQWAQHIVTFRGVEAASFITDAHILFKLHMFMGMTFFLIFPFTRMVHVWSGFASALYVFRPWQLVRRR
T2 sequence (V7IBP6 entry or part of it, further chain): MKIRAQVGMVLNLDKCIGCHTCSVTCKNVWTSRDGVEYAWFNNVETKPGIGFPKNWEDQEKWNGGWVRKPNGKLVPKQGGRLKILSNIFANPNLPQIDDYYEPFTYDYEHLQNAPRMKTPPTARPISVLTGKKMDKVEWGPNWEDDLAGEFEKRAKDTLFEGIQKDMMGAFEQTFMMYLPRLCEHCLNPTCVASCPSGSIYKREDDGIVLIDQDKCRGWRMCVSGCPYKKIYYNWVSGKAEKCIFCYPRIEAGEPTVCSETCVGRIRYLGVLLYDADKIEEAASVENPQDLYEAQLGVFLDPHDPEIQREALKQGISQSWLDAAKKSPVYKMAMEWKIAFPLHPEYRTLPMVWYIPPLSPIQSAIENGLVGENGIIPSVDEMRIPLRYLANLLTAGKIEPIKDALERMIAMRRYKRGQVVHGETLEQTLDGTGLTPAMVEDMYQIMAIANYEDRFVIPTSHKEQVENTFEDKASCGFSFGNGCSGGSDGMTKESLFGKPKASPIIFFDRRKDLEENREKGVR
T2 sequence (V7IBI8 entry or part of it): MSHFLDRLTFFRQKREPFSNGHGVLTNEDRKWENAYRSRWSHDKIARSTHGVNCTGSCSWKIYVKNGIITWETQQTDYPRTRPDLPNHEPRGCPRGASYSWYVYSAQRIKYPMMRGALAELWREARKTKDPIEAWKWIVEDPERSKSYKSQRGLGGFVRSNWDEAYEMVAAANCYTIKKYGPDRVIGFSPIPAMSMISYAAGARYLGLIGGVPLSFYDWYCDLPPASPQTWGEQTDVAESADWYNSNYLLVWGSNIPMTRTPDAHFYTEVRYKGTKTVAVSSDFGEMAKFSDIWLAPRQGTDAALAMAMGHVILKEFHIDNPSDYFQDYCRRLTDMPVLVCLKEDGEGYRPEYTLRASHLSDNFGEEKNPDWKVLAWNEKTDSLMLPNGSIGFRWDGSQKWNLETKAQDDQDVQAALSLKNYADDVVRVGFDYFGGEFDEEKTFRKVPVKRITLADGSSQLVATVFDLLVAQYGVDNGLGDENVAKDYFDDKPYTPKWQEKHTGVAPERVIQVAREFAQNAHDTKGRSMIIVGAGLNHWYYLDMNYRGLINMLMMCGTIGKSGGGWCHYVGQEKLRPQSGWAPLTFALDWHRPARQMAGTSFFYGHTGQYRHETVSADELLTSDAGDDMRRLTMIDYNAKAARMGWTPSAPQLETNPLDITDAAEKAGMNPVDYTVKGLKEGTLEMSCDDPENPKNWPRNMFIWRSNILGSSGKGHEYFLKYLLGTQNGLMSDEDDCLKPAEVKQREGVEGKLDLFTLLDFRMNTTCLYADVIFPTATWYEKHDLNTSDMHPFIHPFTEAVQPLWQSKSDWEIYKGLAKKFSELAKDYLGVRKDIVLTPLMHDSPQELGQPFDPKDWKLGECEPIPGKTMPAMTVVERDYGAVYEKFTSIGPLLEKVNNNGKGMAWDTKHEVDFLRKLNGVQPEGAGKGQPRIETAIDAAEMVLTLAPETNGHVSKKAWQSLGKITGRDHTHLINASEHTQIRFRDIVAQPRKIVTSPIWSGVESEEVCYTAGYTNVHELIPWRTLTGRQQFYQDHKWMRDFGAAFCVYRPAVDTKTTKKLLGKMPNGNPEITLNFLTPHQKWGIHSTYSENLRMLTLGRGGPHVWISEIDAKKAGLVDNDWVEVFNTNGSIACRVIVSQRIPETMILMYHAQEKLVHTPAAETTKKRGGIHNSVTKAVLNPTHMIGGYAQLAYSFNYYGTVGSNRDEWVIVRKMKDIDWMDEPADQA

By IC50 is commonly meant the midpoint of a concentration-inhibition curve. With `CCCCCCCc1cc(O)c2ccccc2[n+]1[O-]` [HQNO, 2-heptyl-4-hydroxyquinoline-N-oxide], in experiment [1], the half-maximal inhibitory concentration (IC50) is 40 µM.
Consider `O=[N+]([O-])O` [nitrate], for which the “oxidation of reduced methyl viologen at 600 nm, membranes” value in experiment [2] is reported as “The reaction was started by the injection of an anaerobic solution of potassium nitrate”.
In the case of antimycin A3, the IC50 in experiment [1] is 20 µM.
